Assay results published in patent US20220305093A1, “NK-LYSIN PEPTIDE COMPOSITIONS AND METHODS FOR THEIR USE AS ANTIMICROBIAL/ANTIVIRAL AGENTS” (priority 2021, published 2022).

Test system: S. typhimurium (ATCC 14028)
Assay type: cell-based, Salmonella typhimurium
Settings: discs on MH agar, overnight
Description: Screening of NK-lysin peptides was carried out against gram-negative S. typhimurium (ATCC 14028) bacteria. Overnight cultivation of the bacteria was carried out at a temperature of 3TC. A bacterial suspension was created in 10 mM sodium phosphate buffer pH 7.0 having a density of (2×10^6 CFU ml^−1) and plated on Muller-Hinton (MH) agar plates to inoculate. After the plates were dry, antibiotics discs of various concentrations (0 to 150 μg/ml) of antibiotic or NK-lysin peptides were applied to the surface of the inoculated plates. The plates were cultured overnight at 3TC and observed for restriction of growth by determining the diameter of bacterial-free zones surrounding each disc. Ceftazidime antibiotic was employed as a positive control.

Row | Compound | clear zone diameter [mm]
1 | CC(C)(O/N=C(\C(=O)N[C@@H]1C(=O)N2C(C(=O)[O-])=C(C[n+]3ccccc3)CS[C@H]12)c1csc(N)n1)C(=O)O [ceftazidime, reference compound] | ~21
2 | gentamicin [reference compound] | 28
